Tests used:
[1] = test system: mouse bone marrow polychromatic erythrocytes; settings: NIH mice, cyclophosphamide 60 mg/kg positive control
Experimental: It is the object to test the mutagenic potential of drugs on mammalian somatic cells, and provide a basis for clinical drug use.
An appropriate amount of 0.5% sodium carboxymethyl cellulose solution was added to prepare a suspension, and the suspension was stored in a refrigerator at 4° C. The negative control was an equal amount of 0.5% sodium carboxymethylcellulose solution. The positive control was prepared as follows: an appropriate amount of cyclophosphamide used for injection was weighed, and was dissolved in normal saline at the time of use to prepare 60 mg/kg of solution.
6 mice per group. The doses, number of administrations, and bone marrow sampling time are selected in the pre-test.
The dose is reduced by ½ LD50 as the standard, and the number of administrations is one time. According to the pre-test results, the bone marrow sampling time is to sample 24 hours after administration.
At least three dose groups, respectively: 2,000 mg/kg, 1,000 mg/kg, 500 mg/kg
The number of administrations: one-time oral administration.
Oral (Intragastric) administration.
2.4.3 Bone marrow sampling time: 24 hours after administration.
The mice were sacrificed by cervical dislocation. Then the sternums were taken to remove the muscles thereon and the attachments were wiped with a gauze. Direct smear of bone marrow was used: the sternums were cut to expose the medullary cavity, and bone marrow was extruded and mixed well with a drop of calf serum on a slide beforehand as a push piece. After being dried, the slide was fixed in methanol for 10 minutes, and then after it was dried, it was then subjected to Giemsa staining. Each mouse was microscopically examined for about 1,000 polychromatic erythrocytes with intact contours of erythrocytes, and the frequency of occurrence of micronuclei and the ratio of polychromatic erythrocytes to erythrocytes were counted.

[2] = test system: transplanted tumor of human leukemia HL-60 cells; assay: Human leukemia in nude mice model; settings: HL-60 nude mice; 30 mg/kg i.g. 30 d
Experimental: (§1) HL-60 cells in a logarithmic growth phase were taken and subjected to a trypan blue exclusion experiment showing that the cell viability was more than 95%, then the cells were subjected to trypsinization, centrifugation, and supernatant removal. Then cell concentration was adjusted to 1×10^7/ml with matrigel, and then each nude mouse was inoculated subcutaneously with 0.2 ml of cells at its right armpit and recorded as the first day of inoculation. […] Each group was continuously administered intragastrically for 30 days with a dose of 20 ml/kg. The mice were sacrificed the next day after drug withdrawal and the indicators were tested. The long diameter and short diameter of the tumor, and the body weight of each mouse were recorded every 3 days from drug administration to nude mouse sacrifice.
(§2) The body weight of the nude mice and the long diameter (a) and short diameter (b) of the transplanted tumor were measured every 3 days, and the tumor volume (v), relative tumor volume (RTV) and relative tumor proliferation rate (T/C) are calculated respectively according to the following formulas, wherein V=a×b^2/2; RTV=V/V0 (V0 is the tumor volume before administration, V is the tumor volume before sacrifice), and T/C (%)=treatment group RTV/model control group RTV×100%.
(§3) Each mouse was weighed and sacrificed. After the tumor was completely stripped off from the body of the mouse, the non-tumor tissues such as blood stains and fat were removed to weigh the tumor and calculate the tumor growth inhibition rate. The average tumor weight of each group of mice is used as an indicator of efficacy. Tumor growth inhibition rate (%)=(1−the average tumor weight of the treatment group/the average tumor weight of the model group)×100%.

[3] = test system: transplanted tumor of human pancreatic cancer PANC-1 cells; assay: Human pancreatic cancer in nude mice model
Experimental: as §1, with “Then” for “HL-60 cells in a logarithmic growth phase were taken and subjected to a trypan blue exclusion experiment showing that the cell viability was more than 95%, then the cells were subjected to trypsinization, centrifugation, and supernatant removal. Then”
as §2, with “RTV×100%” for “RTV×100%.”
as §3

[4] = test system: NK cell activity of spleen cells against K562 cells; assay: Natural killer (NK) cell activity of Lewis lung cancer tumor-bearing mice; type: in vivo, C57BL/6 mouse
Experimental: The serum-free RPMI 1640 medium was placed in a dish, and then the dish was placed on ice. The spleen was aseptically taken and gently ground with a sterile glass slide to prepare a single cell suspension. The single cell suspension was filtered with a double-layer sterile gauze, washed twice with serum-free RPMI 1640 medium, and centrifuged at 1,500 rpm for 5 min to remove the obtained supernatant. 2 mL of red blood cell lysate was added to the treated suspension, the mixture was allowed to stand for 2 min, and then 8 mL of RPMI 1640 medium was added, centrifuging was performed at 1,500 rpm for 5 min to remove the obtained supernatant, and then washing was performed twice with the RPMI 1640 medium. Trypan blue staining was performed to count the number of live cells, and the cell viability was more than 95%. […]
The spleen cell suspension was taken, and the cell density was adjusted to 1×10^7/mL (effector cells). […] Each mouse was set with: A. effector cells:target cell well (quantity ratio 20:1) to which 20 μL of spleen cell suspension and 100 μL of K562 cell suspension were added; B. an effector cell control well, to which 100 μL of spleen cell suspension and 100 μL of RPMI 1640 medium were added; and C. a target cell control well, to which 100 μL of K562 cell suspension and 100 μL of RPMI 1640 medium were added. […]

[5] = PANC-1 nude mice, 30 mg/kg i.g. 30 d

O=P1(N(CCCl)CCCl)NCCCO1 (centres unmarked) [Cyclophosphamide]
micronucleus rate relative to the negative control group [1]: 16.85 times | micronuclei of polychromatic erythrocytes compared with the negative control group ([1]; P<0.01): very significant increase | Body Weight (g)(d1) [2]: 22.66 ± 1.11 g | Body Weight (g)(d30) [2]: 20.52 ± 1.73 g | Inhibition Rate (%) [2]: 81.37% | Relative Tumor Proliferation Rate(T/C) [2]: 58.63% | Relative Tumor Volume (RTV) [2]: 6.76 ± 2.53 | Tumor Volume (mm3) (d1) [2]: 209.22 ± 50.12 mm3 | Tumor Volume (mm3) (d30) [2]: 1415.16 ± 320.21 mm3 | Tumor Weight [2]: 1.46 ± 0.24 g | Relative Tumor Proliferation Rate(T/C) ([3]; 30 mg/kg): 54.55% | Relative Tumor Volume (RTV) ([3]; 30 mg/kg): 5.54 ± 0.72 | Tumor Volume (mm3) (d1) ([3]; 30 mg/kg, d1): 93.73 ± 8.27 mm3 | Tumor Volume (mm3) (d30) ([3]; 30 mg/kg, d30): 515.49 ± 32.36 mm3 | Body Weight (g)(d1) [3, 5]: 21.89 ± 1.88 g | Body Weight (g)(d30) [3, 5]: 19.92 ± 1.68 g | Inhibition Rate (%) [3, 5]: 80.43% | Tumor Weight [3, 5]: 0.73 ± 0.09 g | NK Cell Activity (%) ([4]; 26 mg/kg, n = 6): 25.4 ± 6.6 % | NK cell activity compared with the control group ([4]; cyclophosphamide, P<0.05): significantly lower

— patent US11077126B2 (priority 2017, dated 2021)
